Measured values as given in patent US4486415A, “Cyclic hexapeptide somatostatin analogs” (Merck & Co., Inc., priority 1983, dated 1984).
Square brackets hold non-standard residues; d marks the D form. Peptide text beside a SMILES is read from it. NMeF = CN[C@@H](Cc1ccccc1)C(=O)O; NMeK = CN[C@@H](CCCCN)C(=O)O; dNMeK = CN[C@H](CCCCN)C(=O)O

Assays:
portal vein glucagon = experiment: decrease of portal vein glucagon in anesthetized rats; format: in vivo, rat; details: multiples or fractions of the effect of somatostatin (=1), fiducial limits in parentheses, external jugular vein, portal blood after 5 minutes
Procedure: (§1) Analogs of somatostatin were compared to somatostatin in their ability to decrease the levels of portal vein glucagon and insulin in anesthetized rates. Male Sprague-Dawley rats (Charles River CD) weighing 160-200 g were anesthetized with urethane (150 mg/100 g of body weight; Aldrich). Saline or peptides were administered via the external jugular vein. After 5 minutes, the portal vein was exposed, and blood was collected via syringe containing 3 mg of EDTA and placed in chilled tubes containing 100 μl of Trasylol (FBA Pharmaceuticals) for subsequent hormone analysis. Plasma levels of glucagon were determined by the method of Faloona and Unger, Methods of Hormone Radioimmunoassay, Jaffe and Behrman (Eds), Academic Press, New York, Vol. II, pp. 257-527 (1976), utilizing glucagon antisera 30K obtained from R. Unger (Dallas, TX). Plasma levels of insulin were determined by a modification of the procedure of Herbert et al., J. Clin. Endocrinol. Metab., 25, 1375-1384 (1965).

portal vein insulin = experiment: decrease of portal vein insulin in anesthetized rats; format: in vivo, rat; details: multiples or fractions of the effect of somatostatin (=1), fiducial limits in parentheses, external jugular vein, portal blood after 5 minutes
Procedure: as §1

growth hormone = experiment: in vitro test for the inhibition of growth hormone release, cultured rat pituitary cells; format: cell-based; details: multiples or fractions of the effect of somatostatin (=1), fiducial limits in parentheses, 4 hours incubation
Procedure: The instant cyclic hexapeptide analogs of somatostatin are tested and compared with the effects of somatostatin in an in vitro test for the inhibition of growth hormone. The test is described as follows:
"Rat pituitaries were isolated according to the procedures of Vale and Grant "In vitro Pituitary Hormone Secretion Assay for Hypophysiotropic Substances" in Methods in Enzymology, Vol. XXXVII, eds. O'Malley, B.W. and Hardman, J.G. (Academic Press, Inc., New York) pp. 5-93 (1975).
After 4 days in culture, the cells were washed and incubated for 4 hours in Dulbecco-modified Eagle's medium in the presence or absence of graded doses of each analog or somatostatin. The medium was then collected for subsequent growth hormone determinatin by a double antibody radioimmunoassay for rat growth hormone."

[1] = tested on: pentagastrin evoked gastric secretion; experiment: inhibition of pentagastrin evoked gastric secretion in the chronic fistula dog; format: in vivo; details: Dose 0.8 μg/ml./min., infusion 0-60 min., relative to placebo trial; for Gastric Secretion & Inhibition, Acid Concentration 0-30 / Gastric Secretion & Inhibition, Vol. 0-30: 0-30 min; for Gastric Secretion & Inhibition, Acid Concentration 30-60 / Gastric Secretion & Inhibition, Vol. 30-60: 30-60 min; for Gastric Secretion & Inhibition, Acid Concentration 60-90 / Gastric Secretion & Inhibition, Vol. 60-90: 60-90 min; for Gastric Secretion & Inhibition, Acid Concentration 90-120 / Gastric Secretion & Inhibition, Vol. 90-120: 90-120 min
Procedure: The effects of the instant cyclichexapeptide analogs of somatostatin are determined by the following procedure.
Compounds were tested for their ability to inhibit pentagastrin evoked gastric secretion in the chronic fistula dog. Female beagle dogs with a chronic gastric fistula were given pentagastrin (2.5 μg./kg./hour, i.v. from -60 to 120 min.) and gastric outputs were collected via the fistula cannula. Samples were analyzed at 30 minute intervals for volume (Ml.) and titratable acid (mEq/L) (Titration to pH 7 with 0.01N NaOH); total acid output (mEq) was calculated as the production of output volume and acid concentration. Test compounds were infused at a constant rate from 0 to 60 minutes. Data have been expressed as percent change of total acid output relative to a placebo trial in the same animals.

| Compound | Glucagon Inhibition (portal vein glucagon) | Insulin Inhibition (portal vein insulin) | Growth Hormone Release Inhibition (growth hormone) | Gastric Secretion & Inhibition, Acid Concentration 0-30 [1] [%] | Gastric Secretion & Inhibition, Vol. 0-30 [1] [%] | Gastric Secretion & Inhibition, Acid Concentration 30-60 [1] [%] | Gastric Secretion & Inhibition, Vol. 30-60 [1] [%] | Gastric Secretion & Inhibition, Acid Concentration 60-90 [1] [%] | Gastric Secretion & Inhibition, Vol. 60-90 [1] [%] | Gastric Secretion & Inhibition, Acid Concentration 90-120 [1] [%] | Gastric Secretion & Inhibition, Vol. 90-120 [1] [%] |
| --- | --- | --- | --- | --- | --- | --- | --- | --- | --- | --- | --- |
| C[C@@H](O)[C@@H]1NC(=O)[C@H](CCCCN)NC(=O)[C@@H](Cc2c[nH]c3ccccc23)NC(=O)[C@H](Cc2ccccc2)NC(=O)[C@@H]2CCCN2C(=O)[C@H](Cc2ccccc2)N(C)C1=O [Cyclo(D-Trp-Lys-Thr-N-Me-Phe-Pro-Phe)] (cyclo(F[dW]KT[NMeF]P)) | 2.0 | 1.1(0.6,1.7) | 0.53(0.34,0.82) | – | – | – | – | – | – | – | – |
| C[C@@H](O)[C@@H]1NC(=O)[C@H](CCCCN)N(C)C(=O)[C@@H](Cc2c[nH]c3ccccc23)NC(=O)[C@H](Cc2ccccc2)NC(=O)[C@@H]2CCCN2C(=O)[C@H](Cc2ccccc2)NC1=O [Cyclo(D-Trp-N-Me-Lys-Thr-Phe-Pro-Phe)] (cyclo(FPF[dW][NMeK]T)) | Active | 0.5(0.1,1.8) | 1.6(0.7,3.4) | 9 | 78 | 49 | 82 | 43 | 61 | 32 | 60 |
| C[C@@H](O)[C@@H]1NC(=O)[C@@H](CCCCN)N(C)C(=O)[C@H](Cc2c[nH]c3ccccc23)NC(=O)[C@H](Cc2ccccc2)NC(=O)[C@@H]2CCCN2C(=O)[C@H](Cc2ccccc2)NC1=O [Cyclo(Pro--Phe--L-Trp--D-N--Me--Lys--Thr--Phe)] (cyclo(FPFW[dNMeK]T)) | – | 0.07 | 0.05(0.04,0.07) | – | – | – | – | – | – | – | – |
| C[C@@H](O)[C@@H]1NC(=O)[C@@H](CCCCN)N(C)C(=O)[C@@H](Cc2c[nH]c3ccccc23)NC(=O)[C@H](Cc2ccccc2)NC(=O)[C@@H]2CCCN2C(=O)[C@H](Cc2ccccc2)NC1=O [Cyclo-(Pro-Phe-D-Trp-N-Me-D-Lys-Thr-Phe)] (cyclo(FPF[dW][dNMeK]T)) | 0.4 | 0.4(0.01,1.9) | 1.5(1.2,1.9) | 44 | 82 | 51 | 89 | 6 | 49 | 0 | 60 |
| C[C@@H](O)[C@@H]1NC(=O)[C@H](CCCCN)N(C)C(=O)[C@H](Cc2c[nH]c3ccccc23)NC(=O)[C@H](Cc2ccccc2)NC(=O)[C@@H]2CCCN2C(=O)[C@H](Cc2ccccc2)NC1=O [Cyclo-(Pro-Phe-L-Trp-N-Me-Lys-Thr-Phe)] (cyclo(FPFW[NMeK]T)) | 0.2 | 0.3(0.1,0.7) | 0.1(0.09,0.2) | – | – | – | – | – | – | – | – |
